The record followed here is US7183295B2, “PPAR-activating compound and pharmaceutical composition comprising the compound” (Kowa Co., Ltd., priority 2003, dated 2007).

Like-named read-outs stand apart in the source and are kept apart here.

What all share (type): cell-based
Assay [1] has as its target T1, human PPARδ (137–441aa) ligand binding domain (Homo sapiens, UniProt Q03181).
T1 construct: δ (137–441aa); expressed in transfected cells; host or cells: COS-7
T1 sequence (Q03181 137-441): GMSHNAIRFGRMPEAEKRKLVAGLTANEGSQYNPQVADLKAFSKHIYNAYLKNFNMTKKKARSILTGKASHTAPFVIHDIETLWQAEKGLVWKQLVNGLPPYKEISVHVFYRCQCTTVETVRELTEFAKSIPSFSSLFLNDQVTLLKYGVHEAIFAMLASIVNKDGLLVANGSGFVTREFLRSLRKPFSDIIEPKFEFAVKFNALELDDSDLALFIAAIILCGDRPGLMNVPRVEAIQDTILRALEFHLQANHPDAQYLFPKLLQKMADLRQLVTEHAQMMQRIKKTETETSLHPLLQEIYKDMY
Put plainly: PPAR transfection (Gal4-LBD luciferase reporter) assay, hPPARδ. Particulars: for EC50: read-out: hPPAR, EC50 δ (agonist activity); for activation factor, hPPARδ (FIGS. 1 to 5): at 10-fold concentration of EC50 value in activation of hPPARα, ratio to DMSO control. The method, then: (§1) COS-7 cells, which is African green monkey kidney cell line, were used for all transfection assays. Cells were cultured in DMEM medium supplemented with 10% fetal bovine serum, glutamic acid, and an antibiotic under humidified 5% CO2 atmosphere.
(§2) Cells were transfected by lipofectamine reagent with a mixture containing expression plasmid, firefly luciferase reporter plasmid. And a β-galactosidase expression plasmid used as an internal control for transfection efficiency.
(§3) Transiently transfected cells were incubated with DMEM with 0.2% FCS with or without compound. And after 16 hours, luciferase activity and β-galactosidase activity of cell lysate were measured.
(§4) Each compound was dissolved in and diluted with dimethyl sulfoxide (DMSO), and the DMSO concentration of the DMEM medium (containing 0.2% serum) was adjusted to 0.1% upon treatment of cells.

Assay [2] concerns the target T2, human PPARγ (182–505aa) ligand binding domain (Homo sapiens, UniProt P37231).
T2 construct: γ(182–505aa); expressed in transfected cells; host or cells: COS-7
T2 sequence (P37231 182-505): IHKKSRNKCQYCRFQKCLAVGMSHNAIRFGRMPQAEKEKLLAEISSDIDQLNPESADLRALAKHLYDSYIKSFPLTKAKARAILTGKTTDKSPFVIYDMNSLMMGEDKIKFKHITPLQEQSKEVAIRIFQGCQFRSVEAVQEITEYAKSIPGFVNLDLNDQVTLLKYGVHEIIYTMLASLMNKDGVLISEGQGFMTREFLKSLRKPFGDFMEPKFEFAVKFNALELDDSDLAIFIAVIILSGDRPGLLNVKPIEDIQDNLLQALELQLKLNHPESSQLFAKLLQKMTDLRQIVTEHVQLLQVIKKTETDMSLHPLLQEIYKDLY
Put plainly: PPAR transfection (Gal4-LBD luciferase reporter) assay, hPPARγ. Particulars: for EC50: read-out: hPPAR, EC50 γ (agonist activity); for activation factor, hPPARγ (FIGS. 1 to 5): at 10-fold concentration of EC50 value in activation of hPPARα, ratio to DMSO control. The method, then:
as §1, §2, §3, §4

Assay [3] addresses T3, human PPARα (166–467aa) ligand binding domain (Homo sapiens, UniProt Q07869).
T3 construct: human PPARα (166–467aa); expressed in transfected cells; host or cells: COS-7
T3 sequence (Q07869 166-467): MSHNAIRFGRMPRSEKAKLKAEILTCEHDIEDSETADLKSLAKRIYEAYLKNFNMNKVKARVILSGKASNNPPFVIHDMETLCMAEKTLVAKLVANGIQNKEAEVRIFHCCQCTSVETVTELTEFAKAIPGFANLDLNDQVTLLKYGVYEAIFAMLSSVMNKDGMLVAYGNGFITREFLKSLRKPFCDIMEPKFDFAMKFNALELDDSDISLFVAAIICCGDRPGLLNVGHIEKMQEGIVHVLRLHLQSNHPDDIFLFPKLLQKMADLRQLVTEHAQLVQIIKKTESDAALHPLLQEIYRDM
The assay is described as follows: PPAR transfection (Gal4-LBD luciferase reporter) assay, hPPARα. To be noted: for EC50: read-out: hPPAR, EC50 α (agonist activity). On the procedure:
as §1, §2, §3, §4

Setting [4] is: transfected COS-7 cells, 16 hours, luciferase activity.

Regarding `CCC(Oc1cccc(CCN(CCOc2ccc(OC)cc2)c2nc3cc(Cl)ccc3o2)c1)C(=O)O` (stereo not shown) [Example 47, 2-[3-[2-[N-(5-Chlorobenzoxazol-2-yl)-N-2-(4-methoxyphenoxy)ethyl]aminoethyl]phenoxy]butyric acid], the EC50 in assay [1] (setting [4]) is 1500 nM; in assay [2] (setting [4]), > 50000 nM; in assay [3] (setting [4]), 40 nM.
As for `CC(C)(Oc1ccc(CCCN(CCc2ccccc2)c2nc3ccccc3[nH]2)cc1)C(=O)O` [Compound C, reference compound], in assay [1], the “activation factor, hPPARδ (FIGS. 1 to 5)” value is listed as “activated no hPPAR isoform”. In addition, the “activation of hPPARδ isoform” value in assay [1] (transfected COS-7 cells) is given as “no activation”. The “activation factor, hPPARγ (FIGS. 1 to 5)” value in assay [2] is “activated no hPPAR isoform”. Moreover, in assay [2] (transfected COS-7 cells), the “activation of hPPARγ isoform” value was “no activation”. Also, in assay [3] (at EC50 value in activation of hPPARα and at 10 times that concentration, ratio to DMSO control), the “activation factor, hPPARα (FIGS. 1 to 5)” value was “activated no hPPAR isoform”. In addition, in assay [3] (transfected COS-7 cells), the “activation of hPPARα isoform” value is on record as “no activation”.
As to `CCC(Oc1cccc(CN(CCOc2ccc(Cl)cc2)c2nc3ccccc3o2)c1)C(=O)O` (stereo not shown) [Example 2, 2-[3-[[N-(Benzoxazol-2-yl)-N-2-(4-chlorophenoxy)ethyl]aminomethyl]phenoxy]butyric acid], the “activation factor, hPPARδ (FIGS. 1 to 5)” value in assay [1] is reported as “substantially no activation”. The EC50 in assay [1] (setting [4]) was 2500 nM; in assay [2] (setting [4]), 7300 nM; in assay [3] (setting [4]) it was 10 nM. Besides, in assay [2], the “activation factor, hPPARγ (FIGS. 1 to 5)” value is “substantially no activation”.
Turning to `COc1ccc(OCCCN(Cc2cccc(OC(C)C(=O)O)c2)c2nc3ccccc3o2)cc1` (stereo not shown) [Example 20, 2-[3-[[N-(Benzoxazol-2-yl)-N-3-(4-methoxyphenoxy)propyl]aminomethyl]phenoxy]propionic acid], the values for the EC50 in assay [1] (setting [4]), in assay [2] (setting [4]) and in assay [3] (setting [4]) were 2000 nM, 1200 nM and 10 nM, respectively.
Regarding `CCC(Oc1cccc(CCN(CCOc2ccccc2)c2nc3ccccc3o2)c1)C(=O)O` (stereo not shown) [Example 41, 2-[3-[2-[N-(Benzoxazol-2-yl)-N-2-phenoxyethyl]aminoethyl]phenoxy]butyric acid], the EC50 in assay [1] (setting [4]) was > 50000 nM; in assay [2] (setting [4]), 2000 nM; in assay [3] (setting [4]) it was 40 nM.
Take `CCC(Oc1cccc(CN(CCOc2ccc(OS(C)(=O)=O)cc2)c2nc3ccccc3o2)c1)C(=O)O` (stereo not shown) [Example 231]: the EC50 in assay [1] (setting [4]) was > 100000 nM; in assay [2] (setting [4]) it was > 10000 nM; in assay [3] (setting [4]) it was 13 nM.
For `COc1ccc2oc(N(CCOc3ccccc3)CCc3cccc(OC(C)C(=O)O)c3)nc2c1` (stereo not shown) [Example 44, 2-[3-[2-[N-(5-Methoxybenzoxazol-2-yl)-N-2-phenoxyethyl]aminoethyl]phenoxy]propionic acid], in that order: 1600 nM, > 100000 nM and 80 nM.
On the same counts, the results for `COc1ccc2oc(N(CCOc3ccc(F)cc3)CCc3cccc(OC(C)C(=O)O)c3)nc2c1` (stereo not shown) [Example 37, 2-[3-[2-[N-2-(4-Fluorphenoxy)ethyl-N-(5-methoxybenzoxazol-2-yl)]aminoethyl]phenoxy]propionic acid] are 1500 nM, 4200 nM and 70 nM.
With `CCC(Oc1cccc(CCN(CCCOc2ccccc2)c2nc3ccccc3o2)c1)C(=O)O` (stereo not shown) [Example 38, 2-[3-[2-[N-(Benzoxazol-2-yl)-N-3-phenoxypropyl]aminoethyl]phenoxy]butyric acid], the EC50 in assay [1] (setting [4]) was 1400 nM; in assay [2] (setting [4]) it was 1500 nM; in assay [3] (setting [4]), 50 nM.
For `CCC(Oc1cccc(CCN(CCOc2ccc(OC)cc2)c2nc3cc(OC)ccc3o2)c1)C(=O)O` (stereo not shown) [Example 48, 2-[3-[2-[N-(5-Methoxybenzoxazol-2-yl)-N-2-(4-methoxyphenoxy)ethyl]aminoethyl]phenoxy]butyric acid], the EC50 in assay [1] (setting [4]) turned out to be 2000 nM; in assay [2] (setting [4]), 5200 nM; in assay [3] (setting [4]), 80 nM.
Take `CCC(Oc1cccc(CN(CCOc2ccccc2)c2nc3cc(F)ccc3o2)c1)C(=O)O` (stereo not shown) [Example 229]: the results for the EC50 in assay [1] (setting [4]), in assay [2] (setting [4]) and in assay [3] (setting [4]) were 1800 nM, > 10000 nM and 6 nM, respectively.
On to `CC(Oc1cccc(CN(CCCOc2ccccc2)c2nc3ccccc3o2)c1)C(=O)O` (stereo not shown) [Example 9, 2-[3-[[N-(Benzoxazol-2-yl)-N-3-phenoxypropyl]aminomethyl]phenoxy]propionic acid], for which the values for the EC50 in assay [1] (setting [4]), in assay [2] (setting [4]) and in assay [3] (setting [4]) were 2400 nM, 1200 nM and 10 nM, respectively.
Take `CC(Oc1cccc(CN(CCCOc2ccc(F)cc2)c2nc3cc4c(cc3o2)OCO4)c1)C(=O)O` (stereo not shown) [Example 169]: the values for the EC50 in assay [1] (setting [4]), in assay [2] (setting [4]) and in assay [3] (setting [4]) were 2000 nM, > 10000 nM and 4 nM, respectively.
For `CC(Oc1cccc(CN(CCOc2ccc(F)cc2)c2nc3ccccc3o2)c1)C(=O)O` (stereo not shown) [Example 186], the EC50 came to 10000 nM in assay [1] (setting [4]), 5500 nM in assay [2] (setting [4]) and 20 nM in assay [3] (setting [4]).
For `CCC(Oc1cccc(CN(CCCOc2ccccc2)c2nc3cc(F)ccc3o2)c1)C(=O)O` (stereo not shown) [Example 132], the EC50 was found to be 1100 nM in assay [1], 1000 nM in assay [2] and 3 nM in assay [3].
Regarding `CCC(Oc1cccc(CN(CCCOc2ccc(F)cc2)c2nc3ccccc3o2)c1)C(=O)O` (stereo not shown) [Example 1, 2-[3-[[N-(Benzoxazol-2-yl)-N-3-(4-fluorophenoxy)propyl]aminomethyl]phenoxy]butyric acid], the “activation factor, hPPARδ (FIGS. 1 to 5)” value in assay [1] is on record as “substantially no activation”. In addition, the EC50 in assay [1] (setting [4]) is 1600 nM; in assay [2] (setting [4]), > 100000 nM; in assay [3] (setting [4]), 10 nM. Also, the “activation factor, hPPARγ (FIGS. 1 to 5)” value in assay [2] was “substantially no activation”.
As to `CCC(Oc1cccc(CN(CCOc2ccc(F)cc2)c2nc3ccc(F)cc3o2)c1)C(=O)O` (stereo not shown) [Example 183], the EC50 came out at 2400 nM in assay [1] (setting [4]), 400 nM in assay [2] (setting [4]) and 4 nM in assay [3] (setting [4]).
`CCC(Oc1cccc(CN(CCOc2ccccc2)c2nc3ccccc3o2)c1)C(=O)O` (stereo not shown) [Example 24, 2-[3-[[N-(Benzoxazol-2-yl)-N-2-phenoxyethyl]aminomethyl]phenoxy]butyric acid]: the EC50 in assay [1] (setting [4]) is 2300 nM; in assay [2] (setting [4]) it was 1400 nM; in assay [3] (setting [4]), 30 nM.
On to `CCC(Oc1cccc(CCN(CCCOc2ccc(Cl)cc2)c2nc3ccccc3o2)c1)C(=O)O` (stereo not shown) [Example 53, 2-[3-[2-[N-(Benzoxazol-2-yl)-N-3-(4-chlorophenoxy)propyl]aminoethyl]phenoxy]butyric acid], for which the results for the EC50 in assay [1] (setting [4]), in assay [2] (setting [4]) and in assay [3] (setting [4]) were 1900 nM, 3900 nM and 60 nM, respectively.
`COc1ccc(OCCCN(Cc2cccc(OC(C)(C)C(=O)O)c2)c2nc3ccccc3o2)cc1` [Example 15, 2-[3-[[N-(Benzoxazol-2-yl)-N-3-(4-methoxyphenoxy)propyl]aminomethyl]phenoxy]-2-methylpropionic acid]: the EC50 in assay [1] (setting [4]) is 1500 nM; in assay [2] (setting [4]) it was > 100000 nM; in assay [3] (setting [4]), 50 nM.
As to `COc1ccc(OCCCN(Cc2cccc(OC(C)C(=O)O)c2)c2nc3cc(Cl)ccc3o2)cc1` (stereo not shown) [Example 204], the EC50 is 1800 nM in assay [1] (setting [4]), 1600 nM in assay [2] (setting [4]) and 10 nM in assay [3] (setting [4]).
Take `C[C@@H](Oc1cccc(CN(CCCOc2ccccc2)c2nc3ccccc3o2)c1)C(=O)O` [Example 88, (R)-2-[[3-[N-(Benzoxazol-2-yl)-N-3-phenoxypropyl]aminomethyl]phenoxy]propionic acid]: the EC50 in assay [1] (setting [4]) is 3700 nM; in assay [2] (setting [4]) it was 2900 nM; in assay [3] (setting [4]), 11 nM.
